Source: patent US20230139171A1 (SITA Information Networking Computing UK Limited, priority 2019, published 2023)

How the values were obtained:
[1] = molecular target: T1, human TLR7 (Homo sapiens, UniProt Q9NYK1); test: TLR7 inhibition reporter assay (HEK-Blue cells, SEAP reporter, gardiquimod stimulation); format: cell-based; settings: HEK-Blue cells overexpressing human TLR7, SEAP reporter, gardiquimod 7.5 μM; read-out: TLR7 IC50
T1 construct: host or cells: HEK-Blue cells
T1 sequence (Q9NYK1 27-1049): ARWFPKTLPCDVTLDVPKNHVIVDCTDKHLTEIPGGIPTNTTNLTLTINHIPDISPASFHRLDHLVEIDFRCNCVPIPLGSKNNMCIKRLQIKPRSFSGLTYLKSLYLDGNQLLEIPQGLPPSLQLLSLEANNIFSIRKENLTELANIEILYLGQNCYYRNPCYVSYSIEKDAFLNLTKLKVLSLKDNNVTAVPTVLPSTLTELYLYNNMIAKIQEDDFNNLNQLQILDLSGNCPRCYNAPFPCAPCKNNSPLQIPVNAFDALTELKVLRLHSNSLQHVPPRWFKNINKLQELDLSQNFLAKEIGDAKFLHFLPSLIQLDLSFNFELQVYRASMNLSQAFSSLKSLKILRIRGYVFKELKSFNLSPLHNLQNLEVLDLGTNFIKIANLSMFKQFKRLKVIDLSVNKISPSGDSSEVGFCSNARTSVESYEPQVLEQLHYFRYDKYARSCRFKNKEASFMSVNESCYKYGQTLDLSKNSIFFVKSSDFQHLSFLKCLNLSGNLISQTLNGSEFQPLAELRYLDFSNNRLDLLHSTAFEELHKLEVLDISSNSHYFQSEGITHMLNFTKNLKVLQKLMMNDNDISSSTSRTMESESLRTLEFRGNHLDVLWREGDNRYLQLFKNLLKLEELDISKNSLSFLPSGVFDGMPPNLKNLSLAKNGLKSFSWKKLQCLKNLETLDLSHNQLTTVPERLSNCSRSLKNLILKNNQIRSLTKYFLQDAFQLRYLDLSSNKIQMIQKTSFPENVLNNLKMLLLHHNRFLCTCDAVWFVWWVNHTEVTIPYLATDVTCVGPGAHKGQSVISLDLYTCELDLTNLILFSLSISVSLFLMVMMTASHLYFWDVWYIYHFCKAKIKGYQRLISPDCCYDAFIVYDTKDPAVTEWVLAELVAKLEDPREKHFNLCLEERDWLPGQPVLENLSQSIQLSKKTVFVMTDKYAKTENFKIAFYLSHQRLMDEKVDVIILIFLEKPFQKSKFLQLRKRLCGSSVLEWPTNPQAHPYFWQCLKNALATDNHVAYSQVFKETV
Procedure: (§1) TLR7/8/9 Inhibition Reporter Assays
(§2) HEK-Blue™-cells (Invivogen) overexpressing human TLR7, TLR8 or TLR9 receptors were used for screening inhibitors of these receptors using an inducible SEAP (secreted embryonic alkaline phosphatase) reporter gene under the control of the IFN-β minimal promoter fused to five NF-κB and AP-1-binding sites. Briefly, cells are seeded into Greiner 384 well plates (15000 cells per well for TLR7, 20,000 for TLR8 and 25,000 for TLR9) and then treated with test compounds in DMSO to yield a final dose response concentration range of 0.05 nM-50 μM. After a 30 minute compound pre-treatment at room temperature, the cells are then stimulated with a TLR7 ligand (gardiquimod at a final concentration of 7.5 μM), TLR8 ligand (R848 at a final concentration of 15.9 μM) or TLR9 ligand (ODN2006 at a final concentration of 5 nM) to activate NF-κB and AP-1 which induce the production of SEAP. After a 22 hour incubation at 37° C., 5% CO2, SEAP levels are determined with the addition of HEK-Blue™ Detection reagent (Invivogen), a cell culture medium that allows for detection of SEAP, according to manufacturer's specifications. The percent inhibition is determined as the % reduction in the HEK-Blue signal present in wells treated with agonist plus DMSO alone compared to wells treated with a known inhibitor.

[2] = molecular target: T2, human TLR8 (Homo sapiens, UniProt Q9NR97); test: TLR8 inhibition reporter assay (HEK-Blue cells, SEAP reporter, R848 stimulation); format: cell-based; settings: HEK-Blue cells overexpressing human TLR8, SEAP reporter, R848 15.9 μM; read-out: TLR8 IC50
T2 construct: host or cells: HEK-Blue cells
T2 sequence (Q9NR97 27-1041): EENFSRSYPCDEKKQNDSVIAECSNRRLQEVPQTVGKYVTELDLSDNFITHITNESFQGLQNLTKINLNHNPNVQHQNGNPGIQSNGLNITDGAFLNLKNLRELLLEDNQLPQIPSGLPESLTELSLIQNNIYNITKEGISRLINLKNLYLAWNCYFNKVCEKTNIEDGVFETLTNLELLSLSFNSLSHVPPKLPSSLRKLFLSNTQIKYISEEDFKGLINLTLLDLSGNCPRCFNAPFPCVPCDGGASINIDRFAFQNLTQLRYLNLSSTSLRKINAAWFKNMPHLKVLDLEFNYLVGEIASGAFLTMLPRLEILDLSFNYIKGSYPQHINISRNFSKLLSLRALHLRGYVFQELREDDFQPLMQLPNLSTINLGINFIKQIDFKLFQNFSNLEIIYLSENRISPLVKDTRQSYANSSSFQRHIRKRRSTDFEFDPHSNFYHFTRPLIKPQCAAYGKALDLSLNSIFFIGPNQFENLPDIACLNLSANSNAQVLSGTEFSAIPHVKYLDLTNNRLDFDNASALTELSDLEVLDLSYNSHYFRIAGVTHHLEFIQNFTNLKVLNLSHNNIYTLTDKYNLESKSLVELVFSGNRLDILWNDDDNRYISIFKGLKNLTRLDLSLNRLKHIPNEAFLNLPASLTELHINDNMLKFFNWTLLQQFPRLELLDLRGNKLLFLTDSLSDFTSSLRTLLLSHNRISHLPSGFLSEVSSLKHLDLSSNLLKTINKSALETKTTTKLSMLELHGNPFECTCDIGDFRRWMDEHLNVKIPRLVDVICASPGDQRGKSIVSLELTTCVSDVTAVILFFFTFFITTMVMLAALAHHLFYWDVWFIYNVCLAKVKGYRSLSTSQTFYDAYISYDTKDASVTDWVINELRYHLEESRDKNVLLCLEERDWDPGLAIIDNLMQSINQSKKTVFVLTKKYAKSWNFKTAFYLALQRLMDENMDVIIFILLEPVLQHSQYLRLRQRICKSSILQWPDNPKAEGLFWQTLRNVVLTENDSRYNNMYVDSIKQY
Procedure: as §1, §2

| Compound | IC50 [1] [nM] | IC50 [2] [nM] |
| --- | --- | --- |
| CC(C)c1c(-c2cn(C)c3ncccc23)[nH]c2sc(C3CCN(C(=O)CN(C)C)CC3)nc12 [Example 32, 2-(dimethylamino)-1-(4-(6-isopropyl-5-(1-methyl-1H-pyrrolo[2,3-b]pyridin-3-yl)-4H-pyrrolo[3,2-d]thiazol-2-yl)piperidin-1-yl)ethan-1-one] | 3.41 | 15.9 |
| CC(C)c1c(-c2cn(C)c3ncccc23)[nH]c2sc(C3CCN(CCS(C)(=O)=O)CC3)nc12 [Example 33, 6-isopropyl-5-(1-methyl-1H-pyrrolo[2,3-b]pyridin-3-yl)-2-(1-(2-(methylsulfonyl)ethyl)piperidin-4-yl)-4H-pyrrolo[3,2-d]thiazole] | 3.86 | 1.52 |
| Cc1c(-c2[nH]c3sc(C4CCN(CCS(C)(=O)=O)CC4)nc3c2C(C)C)cn2ncnc2c1C [Example 55, 5-(7,8-dimethyl-[1,2,4]triazolo[1,5-a]pyridin-6-yl)-6-isopropyl-2-(1-(2-(methylsulfonyl)ethyl)piperidin-4-yl)-4H-pyrrolo[3,2-d]thiazole] | 2.99 | 1.15 |
| CNC(=O)CN1CCC(c2nc3c(C(C)C)c(-c4cn5ncnc5c(C)c4C)[nH]c3s2)CC1 [Example 56, 2-(4-(5-(7,8-dimethyl-[1,2,4]triazolo[1,5-a]pyridin-6-yl)-6-isopropyl-4H-pyrrolo[3,2-d]thiazol-2-yl)piperidin-1-yl)-N-methylacetamide] | 4.36 | 3.43 |
| CC(=O)N1CCC(c2nc3c(C(C)C)c(-c4cn5ncnc5c(C)c4C)[nH]c3s2)CC1 [Example 59, 1-(4-(5-(7,8-dimethyl-[1,2,4]triazolo[1,5-a]pyridin-6-yl)-6-isopropyl-4H-pyrrolo[3,2-d]thiazol-2-yl)piperidin-1-yl)ethan-1-one] | 5.83 | 47.2 |
| Cc1c(-c2[nH]c3sc(C4CCN(CCS(C)(=O)=O)CC4)nc3c2C(C)C)cn(C)c(=O)c1C [Example 61, 5-(6-isopropyl-2-(1-(2-(methylsulfonyl)ethyl)piperidin-4-yl)-4H-pyrrolo[3,2-d]thiazol-5-yl)-1,3,4-trimethylpyridin-2(1H)-one] | 22.7 | 5.33 |
| Cc1c(-c2[nH]c3sc(C4CCN(CC(=O)N(C)C)CC4)nc3c2C(C)C)cn(C)c(=O)c1C [Example 62, 2-(4-(6-isopropyl-5-(1,4,5-trimethyl-6-oxo-1,6-dihydropyridin-3-yl)-4H-pyrrolo[3,2-d]thiazol-2-yl)piperidin-1-yl)-N,N-dimethylacetamide] | 88.6 | 22.3 |
| CNC(=O)CN1CCC(c2nc3c(C(C)C)c(-c4cn(C)c(=O)c(C)c4C)[nH]c3s2)CC1 [Example 63, 2-(4-(6-isopropyl-5-(1,4,5-trimethyl-6-oxo-1,6-dihydropyridin-3-yl)-4H-pyrrolo[3,2-d]thiazol-2-yl)piperidin-1-yl)-N-methylacetamide] | 24.8 | 14.6 |
| Cc1c(-c2[nH]c3sc(N4CCN(CCS(C)(=O)=O)CC4)nc3c2C(C)C)cn2ncnc2c1C [Example 282, 5-(7,8-dimethyl-[1,2,4]triazolo[1,5-a]pyridin-6-yl)-6-isopropyl-2-(4-(2-(methylsulfonyl)ethyl)piperazin-1-yl)-4H-pyrrolo[3,2-d]thiazole] | 29.8 | 5.33 |
| Cc1c(-c2[nH]c3sc(N4CCN(CC(=O)N(C)C)CC4)nc3c2C(C)C)cn2ncnc2c1C [Example 283, 2-(4-(5-(7,8-dimethyl-[1,2,4]triazolo[1,5-a]pyridin-6-yl)-6-isopropyl-4H-pyrrolo[3,2-d]thiazol-2-yl)piperazin-1-yl)-N,N-dimethylacetamide] | 18.8 | 1.7 |
| Cc1cc(-c2[nH]c3sc(N4CCN(CC(C)(C)O)C[C@H]4C)nc3c2C(C)C)cn2ncnc12 [Example 359, (R)-1-(4-(6-isopropyl-5-(8-methyl-[1,2,4]triazolo[1,5-a]pyridin-6-yl)-4H-pyrrolo[3,2-d]thiazol-2-yl)-3-methylpiperazin-1-yl)-2-methylpropan-2-ol] | 1120 |  |

Continued by falling IC50 [1], values first:

| IC50 [1] [nM] | IC50 [2] [nM] | Compound |
| --- | --- | --- |
| 36.6 | 27.9 | Cc1c(-c2[nH]c3sc(C4CCN(C5COC5)CC4)nc3c2C(C)C)cn(C)c(=O)c1C [Example 60, 5-(6-isopropyl-2-(1-(oxetan-3-yl)piperidin-4-yl)-4H-pyrrolo[3,2-d]thiazol-5-yl)-1,3,4-trimethylpyridin-2(1H)-one] |
| 32.7 | 10.4 | Cc1c(-c2[nH]c3sc(C4CCN(CC(N)=O)CC4)nc3c2C(C)C)cn(C)c(=O)c1C [Example 64, 2-(4-(6-isopropyl-5-(1,4,5-trimethyl-6-oxo-1,6-dihydropyridin-3-yl)-4H-pyrrolo[3,2-d]thiazol-2-yl)piperidin-1-yl)acetamide] |
| 9.6 | 5.12 | CNC(=O)CN1CCN(c2nc3c(C(C)C)c(-c4cn5ncnc5c(C)c4C)[nH]c3s2)CC1 [Example 284, 2-(4-(5-(7,8-dimethyl-[1,2,4]triazolo[1,5-a]pyridin-6-yl)-6-isopropyl-4H-pyrrolo[3,2-d]thiazol-2-yl)piperazin-1-yl)-N-methylacetamide] |
| 4.44 | 4.94 | CC(C)c1c(-c2cn(C)c3ncccc23)[nH]c2sc(C3CCN(C4COC4)CC3)nc12 [Example 34, 6-isopropyl-5-(1-methyl-1H-pyrrolo[2,3-b]pyridin-3-yl)-2-(1-(oxetan-3-yl)piperidin-4-yl)-4H-pyrrolo[3,2-d]thiazole] |
| 3.98 | 3.02 | CC(C)c1c(-c2cn(C)c3ncccc23)[nH]c2sc(C3CCN(CC(N)=O)CC3)nc12 [Example 31, 2-(4-(6-isopropyl-5-(1-methyl-1H-pyrrolo[2,3-b]pyridin-3-yl)-4H-pyrrolo[3,2-d]thiazol-2-yl)piperidin-1-yl) acetamide] |
| 2.54 | 5.22 | Cc1c(-c2[nH]c3sc(C4CCN(C5COC5)CC4)nc3c2C(C)C)cn2ncnc2c1C [Example 43, 5-(7,8-dimethyl-[1,2,4]triazolo[1,5-a]pyridin-6-yl)-6-isopropyl-2-(1-(oxetan-3-yl)piperidin-4-yl)-4H-pyrrolo[3,2-d]thiazole] |
